These are literature values, as cited in PMC5425492 (Clinical Pharmacokinetics, 2016).

Consider insulin degludec, for which the “Within-subject variability in glucose-lowering effect” value is 20%. Consider insulin detemir, for which the “Within-subject variability in glucose-lowering effect” value is on record as 27%.
